Measured values as given in US10383848B2, “Indole-based therapeutics” (Creighton University, priority 2016, dated 2019).
In brackets after ≈: the same amount, converted by molar mass.

Experiments:
Format in all cases: cell-based
M. abscessus ATCC 19977 = assay: MIC, resazurin microtiter assay; conditions: Mueller Hinton II; for MIC: Mycobacteroides abscessus, ATCC19977, read-out: MIC M. abscessus ATCC 19977
M. abscessus DCI #21 = assay: MIC, resazurin microtiter assay; conditions: Mueller Hinton II; for MIC: Mycobacteroides abscessus, read-out: MIC M. abscessus DCI #21
[1] = system: M. massiliense CIP 108297; assay: MIC, resazurin microtiter assay; conditions: for MIC: Mycobacteroides abscessus, CIP108297, Mueller Hinton II, read-out: MIC M. massiliense CIP 108297
M. massiliense CRM 0019 = assay: MIC, resazurin microtiter assay; conditions: for MIC: Mycobacteroides abscessus, CRM0019, Mueller Hinton II, read-out: MIC M. massiliense CRM 0019
M. bolletii ATCC 14472 = assay: MIC, resazurin microtiter assay; conditions: for MIC: Mycobacteroides abscessus, ATCC14472, Mueller Hinton II, read-out: MIC M. bolletii ATCC 14472
M. chelonae ATCC 35752 = assay: MIC, resazurin microtiter assay; conditions: for MIC: Mycobacteroides chelonae, ATCC35752, Mueller Hinton II, read-out: MIC M. chelonae ATCC 35752
M. smegmatis mc^2155 = assay: MIC, resazurin microtiter assay; conditions: for MIC: Mycolicibacterium smegmatis, MC^2155, 7H9-ADC-0.05% Tween 80, read-out: MIC M. smeg. mc^2155
M. avium 104 = assay: MIC, resazurin microtiter assay; conditions: Mycobacterium avium, 104; Mueller Hinton II; read-out: MIC M. avium 104
M. intracellulare 1956 = assay: MIC, resazurin microtiter assay; conditions: Mueller Hinton II; read-out: MIC M. avium Intracellulare 1956
M. xenopi WT = assay: MIC, resazurin microtiter assay; conditions: Mycobacterium xenopi, Mueller Hinton II; read-out: MIC M. xenopi WT
[2] = system: M. tuberculosis H37Rv mc^26206; assay: microbe, parasite or virus in culture; conditions: for MIC: Mycobacterium tuberculosis, H37RV, read-out: MIC M. tb H37 Rv (mc2-6206)

SMILES | MIC (M. abscessus ATCC 19977) [µg/mL] | MIC (M. abscessus DCI #21) [µg/mL] | MIC [1] [µg/mL] | MIC (M. massiliense CRM 0019) [µg/mL] | MIC (M. bolletii ATCC 14472) [µg/mL] | MIC (M. chelonae ATCC 35752) [µg/mL] | MIC (M. smegmatis mc^2155) [µg/mL] | MIC (M. avium 104) [µg/mL] | MIC (M. intracellulare 1956) [µg/mL] | MIC (M. xenopi WT) [µg/mL] | MIC [2] [µg/mL] | MIC M. abscessus ATCC 19977 (M. abscessus ATCC 19977) [µg/mL] | MIC M. abscessus DCI #21 (M. abscessus DCI #21) [µg/mL] | MIC M. massiliense CIP 108297 ([1]; Mueller Hinton II) [µg/mL] | MIC M. massiliense CRM 0019 (M. massiliense CRM 0019; Mueller Hinton II) [µg/mL] | MIC M. bolletii ATCC 14472 (M. bolletii ATCC 14472; Mueller Hinton II) [µg/mL] | MIC M. chelonae ATCC 35752 (M. chelonae ATCC 35752; Mueller Hinton II) [µg/mL] | MIC M. tb H37 Rv (mc2-6206) [2] [µg/mL] | MIC M. smeg. mc^2155 (M. smegmatis mc^2155; 7H9-ADC-0.05% Tween 80) [µg/mL]
Cc1cc(C)c2cc(C(=O)NC(C)C34CC5CC(CC(C5)C3)C4)[nH]c2c1 (stereo not shown) [Compound 22, N-(1-(1-adamantyl)ethyl)-4,6-dimethyl-1H-indole-2-carboxamide] | 16 (≈ 45.6 µM) | > 32 | 8 (≈ 22.8 µM) | 8 (≈ 22.8 µM) | 16 (≈ 45.6 µM) | 16 (≈ 45.6 µM) | > 20 | > 32 | > 32 | > 32 |  |  |  |  |  |  |  |  | 
CCCCCCCCNC(=O)c1cc2ccccc2[nH]1 [Compound 18, N-octyl-1H-indole-2-carboxamide] | > 32 | > 32 | > 32 | > 32 | > 32 | > 32 | > 25 |  |  |  | > 10 |  |  |  |  |  |  |  | 
CCCCCCCCNC(=O)c1cc2c(C)cc(C)cc2[nH]1 [Compound 33, N-octyl-4,6-dimethyl-1H-indole-2-carboxamide] | > 32 | > 32 | > 32 | > 32 | > 32 | > 32 | 2.5 to 5 (≈ 8.32 to 16.6 µM) | > 32 | > 32 | > 32 | > 20 |  |  |  |  |  |  |  | 
CC1CCC(NC(=O)c2cc3ccccc3[nH]2)CC1 (stereo not shown) [Compound 14, N-((1s,4s)-4-methylcyclohexyl)-1H-indole-2-carboxamide] | > 32 | > 32 | > 32 | > 32 | > 32 | > 32 | > 25 |  |  |  | > 10 |  |  |  |  |  |  |  | 
Cc1cc(C)c2cc(C(=O)NC3C4CC5CC(C4)CC3C5)[nH]c2c1 (stereo not shown) [Compound 24, N-2-adamantyl-4,6-dimethyl-1H-indole-2-carboxamide] | > 32 | > 32 | > 32 | > 32 | > 32 | > 32 | > 20 | > 32 | > 32 | 0.5 to 1 (≈ 1.55 to 3.1 µM) |  |  |  |  |  |  |  |  | 
O=C(NC1CCCCCC1)c1cc2ccccc2[nH]1 [Compound 11, N-cycloheptyl-1H-indole-2-carboxamide] | > 32 | > 32 | > 32 | > 32 | > 32 | > 32 | > 20 |  |  |  | > 5 |  |  |  |  |  |  |  | 
CCC12CC3CC(C1)CC(NC(=O)c1cc4c(C)cc(C)cc4[nH]1)(C3)C2 [Compound 21, N-(3-ethyl-1-adamantyl)-4,6-dimethyl-1H-indole-2-carboxamide] | > 32 | > 32 | > 32 | > 32 | > 32 | > 32 | > 20 | > 32 | > 32 | > 32 |  |  |  |  |  |  |  |  | 
Cc1cc(C)c2cc(C(=O)NCc3cccc(Cl)c3)[nH]c2c1 [Compound 34, N-(3-chlorobenzyl)-4,6-dimethyl-1H-indole-2-carboxamide] | > 32 | > 32 | > 32 | > 32 | > 32 | > 32 | > 20 |  |  |  | > 5 |  |  |  |  |  |  |  | 
O=C(NCC12CC3CC(CC(C3)C1)C2)c1cc2ccccc2[nH]1 [Compound 8, N-(1-(1-adamantyl)methyl)-1H-indole-2-carboxamide] | 2 (≈ 6.48 µM) | 2 (≈ 6.48 µM) | 2 (≈ 6.48 µM) | > 32 | 2 (≈ 6.48 µM) | 1 (≈ 3.24 µM) | > 20 | > 32 | > 32 | 4 (≈ 13 µM) | > 5 |  |  |  |  |  |  |  | 
O=C(NC1C2CC3CC(C2)CC1C3)c1cc2ccccc2[nH]1 (stereo not shown) [Compound 9, N-(2-adamantyl)-1H-indole-2-carboxamide] | > 32 | > 32 | > 32 | 32 (≈ 109 µM) | 32 (≈ 109 µM) | > 32 | > 25 | > 32 | > 32 | 2 (≈ 6.79 µM) | 0.39 (≈ 1.32 µM) |  |  |  |  |  |  |  | 
Cc1cc(C)c2cc(C(=O)NC3CCCCC3)[nH]c2c1 [Compound 27, N-cyclohexyl-4,6-dimethyl-1H-indole-2-carboxamide] | 0.5 (≈ 1.85 µM) | 0.25 (≈ 0.925 µM) | 0.25 (≈ 0.925 µM) | 0.25 (≈ 0.925 µM) | 0.25 (≈ 0.925 µM) | 0.25 (≈ 0.925 µM) | 2.5 (≈ 9.25 µM) | > 32 | > 32 | 1 to 2 (≈ 3.7 to 7.4 µM) |  |  |  |  |  |  |  |  | 
Cc1cc(C)c2cc(C(=O)NC34CC5CC(CC(C5)C3)C4)[nH]c2c1 [Compound 20, N-1-adamantyl-4,6-dimethyl-1H-indole-2-carboxamide] | > 32 | 32 (≈ 99.2 µM) | > 32 | > 32 | > 32 | > 32 | 1.25 to 2.5 (≈ 3.88 to 7.75 µM) | > 32 | > 32 | > 32 |  |  |  |  |  |  |  |  | 
CCCCCCCNC(=O)c1cc2ccccc2[nH]1 [Compound 17, N-heptyl-1H-indole-2-carboxamide] | > 32 | > 32 | > 32 | > 32 | > 32 | > 32 | > 25 |  |  |  | > 10 |  |  |  |  |  |  |  | 
CC1CCC(NC(=O)c2cc3ccccc3[nH]2)CC1 (stereo not shown) [Compound 15] |  |  |  |  |  |  |  | > 32 | > 32 | 16 (≈ 62.4 µM) |  | >32 | >32 | 16 (≈ 62.4 µM) | 16 (≈ 62.4 µM) | 16 (≈ 62.4 µM) | 16 (≈ 62.4 µM) | 5 (≈ 19.5 µM) | 12.5 (≈ 48.8 µM)
CC(NC(=O)c1cc2ccccc2[nH]1)C12CC3CC(CC(C3)C1)C2 (stereo not shown) [Compound 7, N-(1-(1-adamantyl)ethyl)-1H-indole-2-carboxamide] | 16 (≈ 49.6 µM) | 16 (≈ 49.6 µM) | 8 (≈ 24.8 µM) | 8 (≈ 24.8 µM) | 16 (≈ 49.6 µM) | 2 (≈ 6.2 µM) | > 20 | > 32 | 32 (≈ 99.2 µM) | 8 (≈ 24.8 µM) | > 5 |  |  |  |  |  |  |  | 
Cc1cc(C)c2cc(C(=O)NC3CCCC3)[nH]c2c1 [Compound 28, N-cyclopentyl-4,6-dimethyl-1H-indole-2-carboxamide] | 4 (≈ 15.6 µM) | 4 (≈ 15.6 µM) | 8 (≈ 31.2 µM) | 8 (≈ 31.2 µM) | 2 (≈ 7.8 µM) | 2 (≈ 7.8 µM) | 5 (≈ 19.5 µM) | > 32 | > 32 | 8 to 16 (≈ 31.2 to 62.4 µM) | 2.5 (≈ 9.75 µM) |  |  |  |  |  |  |  | 
Cc1cc(C)c2cc(C(=O)NCC34CC5CC(CC(C5)C3)C4)[nH]c2c1 [Compound 23, N-(1-(1-adamantyl)methyl)-4,6-dimethyl-1H-indole-2-carboxamide] | > 32 | > 32 | > 32 | > 32 | > 32 | > 32 | > 20 | > 32 | > 32 | 1 (≈ 2.97 µM) |  |  |  |  |  |  |  |  | 
CCC12CC3CC(C1)CC(NC(=O)c1cc4ccccc4[nH]1)(C3)C2 [Compound 6, N-(3-ethyl-1-adamantyl)-1H-indole-2-carboxamide] | > 32 | > 32 | > 32 | > 32 | > 32 | > 32 | > 20 | > 32 | > 32 | 1 to 2 (≈ 3.1 to 6.2 µM) | 1.25 (≈ 3.88 µM) |  |  |  |  |  |  |  | 
O=C(NC1CCCCC1)c1cc2ccccc2[nH]1 [Compound 12, N-cyclohexyl-1H-indole-2-carboxamide] | > 32 | > 32 | > 32 | > 32 | > 32 | > 32 | > 25 |  |  |  | > 10 |  |  |  |  |  |  |  | 
Cc1cc(C)c2cc(C(=O)NC3CCC(C)CC3)[nH]c2c1 (stereo not shown) [Compound 29, 4,6-dimethyl-N-((1s,4s)-4-methylcyclohexyl)-1H-indole-2-carboxamide] | ≤ 0.06 | ≤ 0.06 | ≤ 0.06 | ≤ 0.06 | ≤ 0.06 | ≤ 0.06 | > 20 | > 32 | > 32 | 0.25 to 1 (≈ 0.879 to 3.52 µM) |  |  |  |  |  |  |  |  | 
O=C(NCc1cccc(Cl)c1)c1cc2ccccc2[nH]1 [Compound 19, N-(3-chlorobenzyl)-1H-indole-2-carboxamide] | > 32 | > 32 | > 32 | > 32 | > 32 | > 32 | > 20 |  |  |  | > 5 |  |  |  |  |  |  |  | 
O=C(NC1CCCC1)c1cc2ccccc2[nH]1 [Compound 13, N-cyclopentyl-1H-indole-2-carboxamide] | > 32 | > 32 | > 32 | > 32 | > 32 | > 32 | > 25 |  |  |  | > 10 |  |  |  |  |  |  |  | 
